Data from PubChem BioAssay AID330 (DTP/NCI, 2004).
“And” between values parts separate entries of the source, which are not always exact repeats. Identical values can stand only once. Toxic doses and inconclusive results are not listed. How the source made its calls: active means survival T/C of 150% or more; inactive means T/C below 125% in these data.

Tested on: P388 leukemia ip, CD2F1 mice, survival T/C
Assay: NCI In Vivo Anticancer Drug Screen. Data for tumor model P388 Leukemia (intraperitoneal) in CD2F1 (CDF1) mice
Conditions: endpoint: median survival time, higher = longer survival
Method in brief: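 Mice carrying the transplanted tumor received test compound or vehicle. Survival was recorded in each group, and the value is the treated-group measurement divided by that of the vehicle-treated control group.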

[1] = dose: 50.0 mg/kg/injection, schedule: Q01DX009 (ip), vehicle: saline with Tween-80
[2] = dose: 100.0 mg/kg/injection, schedule: Q01DX009 (ip), vehicle: saline with Tween-80
[3] = dose: 100.0 mg/kg/injection, schedule: Q04DX003 (ip), vehicle: saline with Tween-80
[4] = dose: 200.0 mg/kg/injection, schedule: Q01DX009 (ip), vehicle: saline with Tween-80
[5] = dose: 200.0 mg/kg/injection, schedule: Q04DX003 (ip), vehicle: saline with Tween-80
[6] = dose: 400.0 mg/kg/injection, schedule: Q04DX003 (ip), vehicle: saline with Tween-80
[7] = dose: 12.5 mg/kg/injection, schedule: Q01DX009 (ip), vehicle: saline
[8] = dose: 50.0 mg/kg/injection, schedule: Q01DX009 (ip), vehicle: saline
[9] = dose: 100.0 mg/kg/injection, schedule: Q01DX001 (ip), vehicle: saline with Tween-80
[10] = dose: 200.0 mg/kg/injection, schedule: Q01DX001 (ip), vehicle: saline with Tween-80
[11] = dose: 400.0 mg/kg/injection, schedule: Q01DX001 (ip), vehicle: saline with Tween-80
[12] = dose: 60.0 mg/kg/injection, schedule: Q01DX005 (ip), vehicle: saline with Tween-80
[13] = dose: 120.0 mg/kg/injection, schedule: Q01DX005 (ip), vehicle: saline with Tween-80
[14] = dose: 100.0 mg/kg/injection, schedule: Q01DX009 (ip), vehicle: saline
[15] = dose: 240.0 mg/kg/injection, schedule: Q01DX005 (ip), vehicle: saline with Tween-80

Measured: T/C

Nc1ccccc1SC1CC(=O)N(c2ccccc2Cl)C1=O (stereo not given)
inactive: [1] 90 % of control | [2] 90 % of control and 95 % of control | [3] 90 % of control | [4] 95 % of control | [5] 90 % of control | [6] 95 % of control

CCOC(=O)C(=CNCc1ccccc1)C(=O)OCC
inactive: dose: 15.0 mg/kg/injection, schedule: Q01DX009 (ip), vehicle: saline with Tween-80 106 % of control | dose: 30.0 mg/kg/injection, schedule: Q01DX009 (ip), vehicle: saline with Tween-80 104 % of control | dose: 60.0 mg/kg/injection, schedule: Q01DX009 (ip), vehicle: saline with Tween-80 95 % of control

CCCCCCCCCCCCCCCCN1C(=O)/C(=C\c2ccc(O)cc2)SC1=Nc1ccccc1
inactive: [7] 90 % of control | dose: 25.0 mg/kg/injection, schedule: Q01DX009 (ip), vehicle: saline 88 % of control | [1] 95 % of control | [8] 91 % of control | [4] 92 % of control

C=C1C(=O)O[C@@H]2[C@H]3C(C)=CC[C@@H](OC(=O)/C(C)=C/C)[C@]3(C)[C@H](O)C[C@@H]12
inactive: dose: 7.0 mg/kg/injection, schedule: Q01DX005 (ip), vehicle: Klucel (hydroxypropylcellulose) (HPC) 100 % of control | dose: 14.0 mg/kg/injection, schedule: Q01DX005 (ip), vehicle: Klucel (hydroxypropylcellulose) (HPC) 100 % of control | dose: 28.0 mg/kg/injection, schedule: Q01DX005 (ip), vehicle: Klucel (hydroxypropylcellulose) (HPC) 106 % of control | dose: 56.0 mg/kg/injection, schedule: Q01DX005 (ip), vehicle: Klucel (hydroxypropylcellulose) (HPC) 105 % of control

C[n+]1cc(Cl)cc(Br)c1
inactive: dose: 25.0 mg/kg/injection, schedule: Q01DX005 (ip), vehicle: saline 117 % of control

CCCCCCCCCC(O)(CSc1ccccc1)CSc1ccccc1
inactive: [1] 99 % of control | [2] 100 % of control | [4] 114 % of control

O=C(O)CCC1CC(=O)OC1c1ccccc1 (stereo not given)
inactive: dose: 100.0 mg/kg/injection, schedule: Q01DX001 (ip), vehicle: Klucel (hydroxypropylcellulose) (HPC) 94 % of control | dose: 200.0 mg/kg/injection, schedule: Q01DX001 (ip), vehicle: Klucel (hydroxypropylcellulose) (HPC) 94 % of control | dose: 400.0 mg/kg/injection, schedule: Q01DX001 (ip), vehicle: Klucel (hydroxypropylcellulose) (HPC) 94 % of control

Cc1ccc(-c2cs/c(=N\N=C3/CSC(=O)N3Cc3ccccc3)n2-c2ccc(C)cc2)cc1
inactive: dose: 100.0 mg/kg/injection, schedule: Q04DX002 (ip), vehicle: Klucel (hydroxypropylcellulose) (HPC) 100 % of control | dose: 200.0 mg/kg/injection, schedule: Q04DX002 (ip), vehicle: Klucel (hydroxypropylcellulose) (HPC) 107 % of control | dose: 400.0 mg/kg/injection, schedule: Q04DX002 (ip), vehicle: Klucel (hydroxypropylcellulose) (HPC) 102 % of control

COc1cc(C)c(/C(=N/O)n2nnc(-c3ccc(Cl)cc3)n2)c(C)c1
inactive: [9] 123 % of control | [10] 114 % of control | [11] 95 % of control

COc1cc(C=O)cc(Br)c1O
inactive: dose: 25.0 mg/kg/injection, schedule: Q01DX009 (ip), vehicle: Klucel (hydroxypropylcellulose) (HPC) 108 % of control | dose: 50.0 mg/kg/injection, schedule: Q01DX009 (ip), vehicle: Klucel (hydroxypropylcellulose) (HPC) 108 % of control | dose: 100.0 mg/kg/injection, schedule: Q01DX009 (ip), vehicle: Klucel (hydroxypropylcellulose) (HPC) 108 % of control | dose: 200.0 mg/kg/injection, schedule: Q01DX009 (ip), vehicle: Klucel (hydroxypropylcellulose) (HPC) 105 % of control

CCN(CC)C(C)COC(=O)c1ccc(N)cc1 (stereo not given)
inactive: [7] 86 % of control | dose: 12.5 mg/kg/injection, schedule: Q04DX003 (ip), vehicle: saline 95 % of control | dose: 25.0 mg/kg/injection, schedule: Q04DX003 (ip), vehicle: saline 91 % of control | [8] 100 % of control | dose: 50.0 mg/kg/injection, schedule: Q04DX003 (ip), vehicle: saline 91 % of control

COCC1CCCN1 (stereo not given)
inactive: dose: 100.0 mg/kg/injection, schedule: Q04DX002 (ip), vehicle: saline 104 % of control | dose: 200.0 mg/kg/injection, schedule: Q04DX002 (ip), vehicle: saline 110 % of control

COC(=O)c1cc(-c2cccc3ccccc23)[nH]c(=O)c1C#N
inactive: [12] 95 % of control | [13] 100 % of control

N=C(N)SCc1ccc(C(=O)NN2C(=O)c3ccccc3C2=O)cc1
inactive: [1] 92 % of control | [2] 92 % of control | [4] 97 % of control

CCCC(=O)c1ccc(C)cc1
inactive: [3] 104 % of control | [5] 104 % of control | [6] 86 % of control

Cc1nc2nc3n(c(=O)c2nc1C)CCCS3
inactive: [8] 105 % of control | [14] 103 % of control | dose: 200.0 mg/kg/injection, schedule: Q01DX009 (ip), vehicle: saline 113 % of control

C#CCN1C(=O)N(CC#C)C(=O)C(CC#C)(C(CC=C)c2ccccc2)C1=O (stereo not given)
inactive: [12] 100 % of control | [13] 100 % of control | [15] 96 % of control

NC(=O)C1CC(O)CN1C(=O)c1cccnc1 (stereo not given)
inactive: dose: 60.0 mg/kg/injection, schedule: Q01DX005 (ip), vehicle: saline 101 % of control | dose: 120.0 mg/kg/injection, schedule: Q01DX005 (ip), vehicle: saline 100 % of control | dose: 240.0 mg/kg/injection, schedule: Q01DX005 (ip), vehicle: saline 93 % of control

CCCCCCCC/C=C\CCCCCCCC[N+]1([O-])CCOCC1
inactive: [8] 102 % of control | [14] 116 % of control

CCOC(=O)[C]1([Hg][CH3])N=NC(C(=O)OC)=C1C(=O)OC (stereo not given)
inactive: dose: 1.56 mg/kg/injection, schedule: Q01DX009 (ip), vehicle: saline 90 % of control | dose: 3.12 mg/kg/injection, schedule: Q01DX009 (ip), vehicle: saline 93 % of control | dose: 6.25 mg/kg/injection, schedule: Q01DX009 (ip), vehicle: saline 90 % of control | [7] 93 % of control

CCCCOP(O)(=S)OCCCC.[Ho]
inactive: dose: 66.0 mg/kg/injection, schedule: Q01DX001 (ip), vehicle: saline with Tween-80 100 % of control | [9] 98 % of control | dose: 150.0 mg/kg/injection, schedule: Q01DX001 (ip), vehicle: saline with Tween-80 98 % of control | [10] 90 % of control | [11] 90 % of control

Cc1cc(N2CCOCC2)ccc1N=Nc1nc2ccccc2s1
inactive: dose: 100.0 mg/kg/injection, schedule: Q01DX001 (ip), vehicle: saline 89 % of control | dose: 200.0 mg/kg/injection, schedule: Q01DX001 (ip), vehicle: saline 88 % of control

Cc1nc2ncn(-c3ccccc3)c2c(=O)n1Cc1ccccc1
inactive: dose: 50.0 mg/kg/injection, schedule: Q01DX005 (ip), vehicle: Klucel (hydroxypropylcellulose) (HPC) 105 % of control | dose: 100.0 mg/kg/injection, schedule: Q01DX005 (ip), vehicle: Klucel (hydroxypropylcellulose) (HPC) 105 % of control | dose: 200.0 mg/kg/injection, schedule: Q01DX005 (ip), vehicle: Klucel (hydroxypropylcellulose) (HPC) 105 % of control

CC12C(=O)C(c3ccccc3)(C(c3ccccc3)=C1c1ccccc1)C1OC(=O)OC12 (stereo not given)
inactive: [1] 95 % of control | [2] 91 % of control

O=C(CC(=O)c1ccc(Cl)s1)C(=O)Nc1cccc(C(F)(F)F)c1
inactive: [12] 105 % of control | [13] 102 % of control | [15] 106 % of control
